The text below walks through data of US20230416237A1, “AMIDE COMPOUND, PHARMACEUTICAL COMPOSITION AND USE THEREOF” (SHENZHEN BO LI JIAN MEDICINE CO., LTD., priority 2020, published 2023).

In one test the target is JAK1 (Homo sapiens (Human), UniProt P23458). The test is described as follows: JAK1 inhibitory activity, mobility shift assay, 1 mM ATP. The class given is biochemical. To be noted: for IC50: 1 mM ATP; for JAK2/JAK1 Multiple selectivity: ratio of JAK2 IC50 to JAK1 IC50, 1 mM ATP. As to the method: (§1) The JAK1 inhibitory activity and the JAK2 inhibitory activity of the amide compounds provided in the above examples were tested by the method below.
Chain of JAK1 (P23458 850-1154): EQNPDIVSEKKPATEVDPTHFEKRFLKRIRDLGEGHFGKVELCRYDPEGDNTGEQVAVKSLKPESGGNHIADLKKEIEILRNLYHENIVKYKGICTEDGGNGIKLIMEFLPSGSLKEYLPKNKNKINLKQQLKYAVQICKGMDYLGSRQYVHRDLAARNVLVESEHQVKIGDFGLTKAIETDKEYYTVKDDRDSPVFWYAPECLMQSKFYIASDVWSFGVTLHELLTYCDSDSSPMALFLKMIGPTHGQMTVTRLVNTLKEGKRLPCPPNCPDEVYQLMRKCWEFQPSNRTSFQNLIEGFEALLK
(§2) Specific steps are described below. • 1. A 1× Kinase buffer was formulated. • 2. Concentration gradients of the compound were formulated: a test compound with an initial concentration of 10000 nM (JAK1) or 30000 nM (JAK2) was diluted in a 384-well plate to a 100% DMSO solution with a 100-fold final concentration, wherein the compound was diluted by a fold of 3 to 10 concentrations. 250 nL of the compound with the 100-fold final concentration was transferred with a dispenser Echo 550 to the target plate. • 3. A kinase solution with a 2.5-fold final concentration was prepared with the 1× Kinase buffer. • 4. […] The plate was centrifuged at 1000 rpm for 30 s, shaken and uniformly mixed, and incubated for 10 min at room temperature. • 6. A mixed solution of ATP (the final concentration of ATP=1 mM) and Kinase substrate with a 5/3-fold final concentration was formulated with the 1× Kinase buffer. • 7. 15 μL of the mixed solution of ATP and the substrate with the 5/3-fold final concentration was added to initiate the reaction. • 8. The 384-well plate was centrifuged at 1000 rpm for 30 s, shaken and uniformly mixed, and incubated for respective times at room temperature. • 9. The kinase reaction was stopped by adding 30 μL of a detection termination solution, and the plate was centrifuged at 1000 rpm for 30 s and shaken and uniformly mixed. • 10. The conversion rate was read with Caliper EZ Reader and the half maximal inhibitory concentration (IC50) was calculated.

In test [1] the test system is IFNα-induced pSTAT3 (JAK1/TYK2 signaling pathway). The test is described as follows: Mouse whole blood assay, inhibition of IFNα-induced pSTAT3. It is filed as cell-based. To be noted: C57BL/6J mouse blood, IFNα 20000 IU/mL. As to the method: Cytokine IFNα can induce STAT3 phosphorylation (pSTAT3) through the JAK1/TYK2 signaling pathway. […] IFNα used was Recombinant mouse IFNα (Miltenyi #130-093-131), the pSTAT3 antibody used was Alexa Fluor 488 anti-STAT3 Phospho (Tyr705) Antibody (Biolegend #651106), and the CD3 antibody used was Brilliant Violet 421 anti-mouse CD3 Antibody (Biolegend #100228). The cytokine dilution buffer was PBS+0.1% BSA, which was filtered and stored at […]. The FACS buffer was PBS+0.2% BSA+1 mM EDTA. Specific steps are described below. • 1. C57BL/6J mouse blood was added to a 96-well plate, with 90 μL per well. • 2. Each well was added with 5 μL of the compound ([…]), uniformly mixed and incubated at 37° C. for 60 min in an incubator. • 3. Each well was added with 5 μL of 20×IFNα (with a working concentration of 20000 IU/mL) as the stimulation factor, uniformly mixed and incubated at 37° C. for 30 min. • 4. Blood was transferred to a 96-deep-well plate, and each well was added with 1 mL of Lyse fix buffer (1×), uniformly mixed and incubated at 37° C. for 10 min. • 5. The plate was centrifuged at 600 g for 5 min and the supernatant was discarded. 1 mL of PBS was added to each well and centrifuged at 600 g for 5 min and the supernatant was discarded, which were repeated twice. Each well was added with 100 μL of the anti-mCD3 antibody (diluted by a fold of 80 with the cytokine dilution buffer), uniformly mixed and incubated at 4° C. for 30 min. • 6. 1 mL of PBS was added to each well and centrifuged at 600 g for 5 min and the supernatant was discarded, which were repeated twice. Each well was added with 1000 μL of Perm III, uniformly mixed and incubated at 4° C. for 30 min. • 7. The plate was centrifuged at 600 g for 5 min and the supernatant was discarded. 1 mL of PBS was added to each well and centrifuged at 600 g for 5 min and the supernatant was discarded, which were repeated twice. • 8. Each well was added with 100 μL of the anti-pSTAT3 antibody (diluted by a fold of 50 with the FACS buffer), uniformly mixed and incubated at 25° C. for 40 min. • 9. 1 mL of the FACS buffer was added to each well and centrifuged at 600 g for 5 min and the supernatant was discarded. 200 μL of the FACS buffer was added to each well and resuspended. All samples were transferred to a 96-well tip-bottom plate and uploaded. • 10. Data were collected and analyzed.

The target of test [2] is T1, JAK2 (Homo sapiens (Human), UniProt O60674). The test is described as follows: JAK2 inhibitory activity, mobility shift assay, 1 mM ATP. It is filed as biochemical. As for the experimental part: as §1, §2
Target sequence in this assay (O60674 826-1132): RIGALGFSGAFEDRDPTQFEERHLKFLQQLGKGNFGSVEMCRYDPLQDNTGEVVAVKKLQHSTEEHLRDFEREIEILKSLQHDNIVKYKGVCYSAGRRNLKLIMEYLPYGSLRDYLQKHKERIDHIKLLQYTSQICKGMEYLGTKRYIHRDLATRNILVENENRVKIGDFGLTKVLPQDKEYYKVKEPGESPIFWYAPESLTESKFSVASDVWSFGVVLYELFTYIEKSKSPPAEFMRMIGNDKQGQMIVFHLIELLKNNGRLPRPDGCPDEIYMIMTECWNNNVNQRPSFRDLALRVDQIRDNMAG
For test [3], the target named is T1, JAK2. To be noted: selective JAK1 inhibitors, literature; cited from earlier work.
Target sequence in this assay (O60674 whole entry, species assumed): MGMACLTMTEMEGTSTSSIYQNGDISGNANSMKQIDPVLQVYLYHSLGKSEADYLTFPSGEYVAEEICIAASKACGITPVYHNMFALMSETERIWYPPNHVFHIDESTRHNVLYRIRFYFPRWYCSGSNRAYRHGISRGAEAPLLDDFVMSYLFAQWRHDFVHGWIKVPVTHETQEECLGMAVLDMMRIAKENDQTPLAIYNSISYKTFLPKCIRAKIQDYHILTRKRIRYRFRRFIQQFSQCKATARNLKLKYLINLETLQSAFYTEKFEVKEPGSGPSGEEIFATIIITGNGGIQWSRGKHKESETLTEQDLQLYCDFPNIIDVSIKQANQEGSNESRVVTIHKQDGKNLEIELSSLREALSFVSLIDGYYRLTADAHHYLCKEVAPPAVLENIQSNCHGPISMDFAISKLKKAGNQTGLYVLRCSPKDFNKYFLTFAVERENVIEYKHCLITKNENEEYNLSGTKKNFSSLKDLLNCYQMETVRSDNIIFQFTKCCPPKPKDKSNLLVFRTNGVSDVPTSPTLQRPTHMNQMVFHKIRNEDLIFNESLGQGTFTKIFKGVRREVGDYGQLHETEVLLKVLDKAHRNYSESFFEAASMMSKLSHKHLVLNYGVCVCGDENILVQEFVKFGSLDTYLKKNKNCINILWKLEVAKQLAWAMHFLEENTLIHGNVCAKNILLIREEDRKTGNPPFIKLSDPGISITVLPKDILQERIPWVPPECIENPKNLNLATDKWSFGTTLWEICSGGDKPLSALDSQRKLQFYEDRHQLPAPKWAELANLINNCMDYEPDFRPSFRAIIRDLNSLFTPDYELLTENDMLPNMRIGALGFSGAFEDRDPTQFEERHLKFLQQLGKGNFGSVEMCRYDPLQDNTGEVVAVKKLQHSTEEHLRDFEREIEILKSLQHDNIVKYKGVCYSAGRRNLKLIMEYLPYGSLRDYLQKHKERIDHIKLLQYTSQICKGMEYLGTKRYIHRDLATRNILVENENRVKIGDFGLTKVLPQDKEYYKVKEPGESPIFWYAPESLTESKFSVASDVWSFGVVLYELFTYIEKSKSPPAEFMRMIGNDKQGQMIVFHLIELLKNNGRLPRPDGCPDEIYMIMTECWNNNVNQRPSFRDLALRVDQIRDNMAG

`COc1nn(C)cc1Nc1ncc(C)c(-c2c[nH]c3c(NC(=O)[C@H]4CC(F)(F)CN4[C@@H]4CCN(C)C4)cccc23)n1` [Example 32, (2R,3′R)-4,4-difluoro-N-(3-(2-((3-methoxy-1-methyl-1H-pyrazol-4-yl)amino)-5-methylpyrimidin-4-yl)-1H-indol-7-yl)-1′-methyl-[1,3′-bipyrrolidine]-2-carboxamide]: the IC50 at JAK1 (Table 7) came out at 26 nM; on JAK1 (Table 8) it was 26 nM; in test [1] it was 121 nM; on JAK2 [2] (Table 7) it was 3880 nM; on JAK2 [2] (Table 8), 3880 nM. In addition, the “JAK2/JAK1 Multiple selectivity” value at JAK1 was 149.
For the compound `COc1nn(C)cc1Nc1nccc(-c2c[nH]c3c(NC(=O)[C@@H](C)N4CCN(C)CC4)cccc23)n1` [AZD4205, reference compound], the half-inhibitory concentration (IC50) was 56 nM at JAK1 (Table 7); 56 nM on JAK1 (Table 8); 173 nM in test [1]; 4020 nM at JAK2 [2] (Table 7); 4020 nM at JAK2 [2] (Table 8). Further, the “JAK2/JAK1 Multiple selectivity” value at JAK1 is on record as 72.
Take `COc1nn(C)cc1Nc1ncc(C)c(-c2c[nH]c3c(NC(=O)[C@H]4C[C@H](F)CN4[C@@H]4CCN(C)C4)cccc23)n1` [Example 30, (2R,3′R,4S)-4-fluoro-N-(3-(2-((3-methoxy-1-methyl-1H-pyrazol-4-yl)amino)-5-methylpyrimidin-4-yl)-1H-indol-7-yl)-1′-methyl-[1,3′-bipyrrolidine]-2-carboxamide]: the IC50 was 33 nM at JAK1 (Table 7); 33 nM at JAK1 (Table 8); 127 nM in test [1]; 5160 nM at JAK2 [2] (Table 7); 5160 nM on JAK2 [2] (Table 8). The “JAK2/JAK1 Multiple selectivity” value at JAK1 came out at 156.
`CC[C@@H]1CN(C(=O)NCC(F)(F)F)C[C@@H]1c1cnc2cnc3[nH]ccc3n12` [upadacitinib]: on JAK2 [3], the “selectivity for JAK2 in kinase assays” value is “less than three”.
Turning to `O=C(Nc1nc2cccc(-c3ccc(CN4CCS(=O)(=O)CC4)cc3)n2n1)C1CC1` [filgotinib], the “selectivity for JAK2 in kinase assays” value at JAK2 [3] is on record as “less than three”.
